Measurements: patent US20120165332A1, “SULFONAMIDES AND SULFAMIDES AS ZAP-70 INHIBITORS” (Cellzome Limited, priority 2009, published 2012)

Biological target: T1, ZAP-70 (Homo sapiens, UniProt P43403)
T1 construct: endogenous in cells; host or cells: cell lysate
T1 sequence (P43403 1-619): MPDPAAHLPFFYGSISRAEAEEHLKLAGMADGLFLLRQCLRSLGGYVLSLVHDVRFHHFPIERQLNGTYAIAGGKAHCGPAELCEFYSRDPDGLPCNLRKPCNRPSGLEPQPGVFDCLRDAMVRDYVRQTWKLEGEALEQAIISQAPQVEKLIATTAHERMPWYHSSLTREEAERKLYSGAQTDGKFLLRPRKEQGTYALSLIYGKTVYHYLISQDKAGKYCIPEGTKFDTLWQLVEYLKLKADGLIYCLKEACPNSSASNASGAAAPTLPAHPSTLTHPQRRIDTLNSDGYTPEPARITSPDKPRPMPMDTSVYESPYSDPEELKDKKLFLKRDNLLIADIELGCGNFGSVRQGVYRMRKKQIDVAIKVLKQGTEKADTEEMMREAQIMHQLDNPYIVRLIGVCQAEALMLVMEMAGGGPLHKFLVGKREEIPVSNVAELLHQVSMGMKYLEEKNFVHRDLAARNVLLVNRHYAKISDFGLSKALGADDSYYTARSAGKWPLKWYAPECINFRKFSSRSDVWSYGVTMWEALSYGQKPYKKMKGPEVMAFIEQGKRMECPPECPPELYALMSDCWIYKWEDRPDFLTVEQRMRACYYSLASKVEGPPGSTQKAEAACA
Experiment: ZAP-70 kinobeads assay
Type: binding
Conditions: cell lysate, affinity matrix with immobilized aminopyrido-pyrimidine ligand 24, dot blot detection
Method: The compounds of the present invention as described in the previous examples can be tested in the ZAP-70 kinobeads assay as described (EP-A 1862802 and WO-A 2007/137867). Briefly, test compounds (at various concentrations) and the affinity matrix with the immobilized aminopyrido-pyrimidine ligand 24 are added to cell lysate aliquots and allowed to bind to the proteins in the lysate sample. After the incubation time the beads with captured proteins are separated from the lysate. Bound proteins are then eluted and the presence ZAP-70 is detected and quantified using a specific antibody in a dot blot procedure and the Odyssey infrared detection system.

## COc1cc(Nc2ncc(F)c(Nc3cccc(C)c3N(CCO)S(C)(=O)=O)n2)cc(OC)c1OC [Example 15, N-(2-(5-fluoro-2-(3,4,5-trimethoxyphenylamino)pyrimidin-4-ylamino)-6-methylphenyl)-N-(2-hydroxyethyl)methanesulfonamide]
  IC50: 1000 to 10000 nM

## COc1ccc(Nc2nc(Nc3cc(OC)c(OC)cc3C)ncc2Cl)c(N(CCN)S(C)(=O)=O)c1 [Example 9, N-(2-aminoethyl)-N-(2-(5-chloro-2-(4,5-dimethoxy-2-methylphenylamino)pyrimidin-4-ylamino)-5-methoxyphenyl)methanesulfonamide]
  IC50: ≤ 100 nM

## COc1cc(Nc2ncc(F)c(Nc3cccc(C)c3N(CCCNC(C)=O)S(C)(=O)=O)n2)cc(OC)c1OC [Example 27, N-(3-(N-(2-(5-fluoro-2-(3,4,5-trimethoxyphenylamino)pyrimidin-4-ylamino)-6-methylphenyl)methylsulfonamido)propyl)acetamide]
  IC50: 100 to 1000 nM

## COc1cc(Nc2ncc(F)c(Nc3cccc(C)c3N(CCCC#N)S(C)(=O)=O)n2)cc(OC)c1OC [Example 24, N-(3-cyanopropyl)-N-(2-(5-fluoro-2-(3,4,5-trimethoxyphenylamino)pyrimidin-4-ylamino)-6-methylphenyl)methanesulfonamide]
  IC50: 1000 to 10000 nM

## COCCN(c1c(C)cccc1Nc1nc(Nc2cc(OC)c(OC)c(OC)c2)ncc1F)S(C)(=O)=O [Example 13]
  IC50: 1000 to 10000 nM

## COc1ccc(Nc2nc(Nc3cc(OC)c(OC)c(OC)c3)ncc2Cl)c(N(CN2CCCC2=O)S(C)(=O)=O)c1 [Example 3, N-(2-(5-chloro-2-(3,4,5-trimethoxyphenylamino)pyrimidin-4-ylamino)-5-methoxyphenyl)-N-((2-oxopyrrolidin-1-yl)methyl)methanesulfonamide]
  IC50: 1000 to 10000 nM

## COc1ccc(Nc2nc(Nc3cc(OC)c(OC)c(OC)c3)ncc2Cl)c(N(CCN)S(C)(=O)=O)c1 [Example 7, N-(2-aminoethyl)-N-(2-(5-chloro-2-(3,4,5-trimethoxyphenylamino)pyrimidin-4-ylamino)-5-methoxyphenyl)methanesulfonamide]
  IC50: ≤ 100 nM

## COc1cc(Nc2ncc(F)c(Nc3cccc(C)c3N(CC#N)S(C)(=O)=O)n2)cc(OC)c1OC [Example 17, N-(cyanomethyl)-N-(2-(5-fluoro-2-(3,4,5-trimethoxyphenylamino)pyrimidin-4-ylamino)-6-methylphenyl)methanesulfonamide]
  IC50: 1000 to 10000 nM

## COc1cc(Nc2ncc(F)c(Nc3cccc(C)c3N(CCC(N)=O)S(C)(=O)=O)n2)cc(OC)c1OC [Example 23, 3-(N-(2-(5-fluoro-2-(3,4,5-trimethoxyphenylamino)pyrimidin-4-ylamino)-6-methylphenyl)methylsulfonamido)propanamide]
  IC50: 1000 to 10000 nM

## COc1cc(Nc2ncc(F)c(Nc3cccc(C)c3N(CCCN)S(C)(=O)=O)n2)cc(OC)c1OC [Example 21, N-(3-aminopropyl)-N-(2-(5-fluoro-2-(3,4,5-trimethoxyphenylamino)pyrimidin-4-ylamino)-6-methylphenyl)methanesulfonamide]
  IC50: 100 to 1000 nM

## COc1ccc(Nc2nc(Nc3cc(OC)c(OC)c(OC)c3)ncc2Cl)c(N(CC#N)S(C)(=O)=O)c1 [Example 6, N-(2-(5-chloro-2-(3,4,5-trimethoxyphenylamino)pyrimidin-4-ylamino)-5-methoxyphenyl)-N-(cyanomethyl)methanesulfonamide]
  IC50: ≤ 100 nM

## COc1ccc(Nc2ncc(Cl)c(Nc3ccc(OC)cc3N(CCNC=O)S(C)(=O)=O)n2)c(OC)c1 [Example 11]
  IC50: 100 to 1000 nM

## COc1ccc(Nc2nc(Nc3cc(OC)c(OC)c(OC)c3)ncc2Cl)c(N(Cc2cnc[nH]2)S(C)(=O)=O)c1 [Example 1, N-((1H-imidazol-5-yl)methyl)-N-(2-(5-chloro-2-(3,4,5-trimethoxyphenylamino)pyrimidin-4-ylamino)-5-methoxyphenyl)methanesulfonamide]
  IC50: 100 to 1000 nM

## COc1ccc(Nc2nc(Nc3cc(F)c(OC)cc3OC)ncc2Cl)c(N(CCN)S(C)(=O)=O)c1 [Example 10, N-(2-aminoethyl)-N-(2-(5-chloro-2-(5-fluoro-2,4-dimethoxyphenylamino)pyrimidin-4-ylamino)-5-methoxyphenyl)methanesulfonamide]
  IC50: 100 to 1000 nM

## COc1cc(Nc2ncc(F)c(Nc3ccccc3N(CCN3CCCC3)S(C)(=O)=O)n2)cc(OC)c1OC [Example 33, N-(2-(5-fluoro-2-(3,4,5-trimethoxyphenylamino)pyrimidin-4-ylamino)phenyl)-N-(2-(pyrrolidin-1-yl)ethyl)methanesulfonamide]
  IC50: 1000 to 10000 nM

## COc1ccc(Nc2nc(Nc3cc(OC)c(OC)c(OC)c3)ncc2Cl)c(N(C[C@@H]2CCC(=O)N2)S(C)(=O)=O)c1 [Example 4, (S)—N-(2-(5-chloro-2-(3,4,5-trimethoxyphenylamino)pyrimidin-4-ylamino)-5-methoxyphenyl)-N-((5-oxopyrrolidin-2-yl)methyl)methanesulfonamide]
  IC50: ≤ 100 nM

## COc1ccc(Nc2nc(Nc3cc(OC)c(OC)c(OC)c3)ncc2Cl)c(N(CCNC(C)=O)S(C)(=O)=O)c1 [Example 30]
  IC50: ≤ 100 nM

## COc1cc(Nc2ncc(F)c(Nc3cccc(C)c3N(CCC#N)S(C)(=O)=O)n2)cc(OC)c1OC [Example 16, N-(2-cyanoethyl)-N-(2-(5-fluoro-2-(3,4,5-trimethoxyphenylamino)pyrimidin-4-ylamino)-6-methylphenyl)methanesulfonamide]
  IC50: 100 to 1000 nM

## COc1ccc(Nc2nc(Nc3cc(OC)c(OC)c(OC)c3)ncc2Cl)c(N(C[C@H]2CCC(=O)N2)S(C)(=O)=O)c1 [Example 5, (R)—N-(2-(5-chloro-2-(3,4,5-trimethoxyphenylamino)pyrimidin-4-ylamino)-5-methoxyphenyl)-N-((5-oxopyrrolidin-2-yl)methyl)methanesulfonamide]
  IC50: 1000 to 10000 nM

## COc1cc(Nc2ncc(F)c(Nc3cccc(C)c3N(CCNC(C)=O)S(C)(=O)=O)n2)cc(OC)c1OC [Example 26, N-(2-(N-(2-(5-fluoro-2-(3,4,5-trimethoxyphenylamino)pyrimidin-4-ylamino)-6-methylphenyl)methylsulfonamido)ethyl)acetamide]
  IC50: 100 to 1000 nM

## COc1cc(Nc2ncc(Cl)c(Nc3ccccc3N(CCNC=O)S(C)(=O)=O)n2)cc(OC)c1OC [Example 2, N-(2-(N-(2-(5-chloro-2-(3,4,5-trimethoxyphenylamino)pyrimidin-4-ylamino)phenyl)methylsulfonamido)ethyl)formamide]
  IC50: ≤ 100 nM

## COc1ccc(Nc2nc(Nc3cc(OC)c(OC)c(OC)c3)ncc2Cl)c(N(CCNC=O)S(C)(=O)=O)c1 [Example 8]
  IC50: ≤ 100 nM

## COc1ccc(Nc2nc(Nc3cc(OC)c(OC)c(OC)c3)ncc2Cl)c(N(CCCNC=O)S(C)(=O)=O)c1 [Example 12, N-(3-(N-(2-(5-chloro-2-(3,4,5-trimethoxyphenylamino)pyrimidin-4-ylamino)-5-methoxyphenyl)methylsulfonamido)propyl)formamide]
  IC50: ≤ 100 nM

## COC(=O)CN(c1c(C)cccc1Nc1nc(Nc2cc(OC)c(OC)c(OC)c2)ncc1F)S(C)(=O)=O [Example 18, Methyl 2-(N-(2-(5-fluoro-2-(3,4,5-trimethoxyphenylamino)pyrimidin-4-ylamino)-6-methylphenyl)methylsulfonamido)acetate]
  IC50: 1000 to 10000 nM

## COc1cc(Nc2ncc(F)c(Nc3cccc(C)c3N(CCCNC=O)S(C)(=O)=O)n2)cc(OC)c1OC [Example 28, N-(3-(N-(2-(5-fluoro-2-(3,4,5-trimethoxyphenylamino)pyrimidin-4-ylamino)-6-methylphenyl)methylsulfonamido)propyl)formamide]
  IC50: 100 to 1000 nM

## COc1cc(Nc2ncc(F)c(Nc3cccc(C)c3N(CCN)S(C)(=O)=O)n2)cc(OC)c1OC [Example 19, N-(2-aminoethyl)-N-(2-(5-fluoro-2-(3,4,5-trimethoxyphenylamino)pyrimidin-4-ylamino)-6-methylphenyl)methanesulfonamide]
  IC50: 100 to 1000 nM

## CS(=O)(=O)N(CCN1CCOCC1)c1ccccc1Nc1nc(Nc2cccc(O)c2)ncc1F [Example 32, N-(2-(5-fluoro-2-(3-hydroxyphenylamino)pyrimidin-4-ylamino)phenyl)-N-(2-morpholinoethyl)methanesulfonamide]
  IC50: 1000 to 10000 nM

## COc1ccc(Nc2nc(Nc3cc(OC)c(OC)c(OC)c3)ncc2Cl)c(N(CCCNC(C)=O)S(C)(=O)=O)c1 [Example 29, N-(3-(N-(2-(5-chloro-2-(3,4,5-trimethoxyphenylamino)pyrimidin-4-ylamino)-5-methoxyphenyl)methylsulfonamido)propyl)acetamide]
  IC50: ≤ 100 nM

## COc1ccc(Nc2nc(Nc3ccnn3C)ncc2Cl)c(N(C[C@H]2CCC(=O)N2)S(C)(=O)=O)c1 [Example 31]
  IC50: 1000 to 10000 nM

## COC(=O)CCN(c1c(C)cccc1Nc1nc(Nc2cc(OC)c(OC)c(OC)c2)ncc1F)S(C)(=O)=O [Example 22, Methyl 3-(N-(2-(5-fluoro-2-(3,4,5-trimethoxyphenylamino)pyrimidin-4-ylamino)-6-methylphenyl)methylsulfonamido)propanoate]
  IC50: 1000 to 10000 nM
